Assays:
[1] = ORAC assay adapted for the linoleate microemulsion system (relative ORAC, synergy)
Method: Synergistic effects of bioactive compounds combined with alpha-tocopherol. […] An OBS microplate was prepared with duplicate wells of Trolox solution standards (20 μL; 500, 250, 125, 62.5, or 31.25 μM) and triplicate wells of samples diluted in phosphate buffer (20 μL). The perimeter wells were not used for kinetic studies to avoid potential edge effects. The oxidation substrate, methyl linoleate microemulsion (200 μL), was then added. […] A control well containing 200 μL of microemulsion and 40 μL of phosphate buffer was used to normalize the fluorescence reading. The reaction kinetics were monitored at 37° C. for 2 h, with readings every 2 min, by a Synergy HT microplate fluorescent reader (Biotek Instruments Inc.). The microplate reader was fitted with an excitation filter at 485 nm, an emission filter of 590 nm, and an oxygen sensor biosystem, and the plate was shaken for 20 s at low intensity before each reading to ensure sufficient mixing. After normalization, the fluorescence data were converted to the oxygen concentration at each point of the reaction. The ORAC values of samples were determined as previously described ([…]. et al., Journal of Agricultural and Food Chemistry 2009, 57, 3409-3414).

[2] = system: human skeletal muscle cells; experiment: Glucose uptake (3H-2-deoxyglucose) in skeletal muscle cells; format: cell-based; settings: 100 nM insulin (positive control)
Method: (§1) Glucose uptake. […] Briefly, primary human subcutaneous adipocytes or primary human myoblasts were differentiated in 96-well microplates. […] All samples, including the positive and negative controls, were tested in triplicate. After a 2-h incubation at 37° C. and 5% CO2, the cells were washed with PBS and lysed. The cell lysate was mixed with scintillation fluid and radioactivity of each well was measured as counts per minute (CPM).

human adipocytes = experiment: Glucose uptake (3H-2-deoxyglucose) in adipocytes; format: cell-based; settings: 100 nM insulin (positive control)
Method: as §1

| Compound | Antioxidant effect in combination with α-tocopherol [1] | Increase in glucose uptake [2] [fold] | Increase in glucose uptake (human adipocytes) [fold] |
| --- | --- | --- | --- |
| O=C1O[C@H]([C@@H](O)CO)C(O)=C1O [ascorbic acid] | additive | – | – |
| Oc1cc(O)c2c(c1)O[C@H](c1ccc(O)c(O)c1)[C@@H](O)C2 [catechin, Catechin] | synergistic | – | – |
| O=C(/C=C/c1ccc(O)c(O)c1)O[C@@H]1C[C@](O)(C(=O)O)C[C@@H](O)[C@H]1O [chlorogenic acid] | synergistic | – | – |
| insulin | – | 2.06 | 1.6 |

From patent US20130261136A1, “COFFEE EXTRACTS AS INGREDIENTS OF FOODS, DRUGS, COSMETICS, DIETARY SUPPLEMENTS, AND BIOLOGICS” (priority 2010, published 2013)
